Results reported in patent US6569895B1, “Compounds and methods for the treatment of cardiovascular, inflammatory and immune disorders” (Millennium Pharmaceuticals, Inc., priority 1995, dated 2003).
Several values for one entry are separate records, joined by “and”; a condition that tells them apart may be missing. Equal values may be shown once.

Tests used:
[1] = tested on: 5-Lipoxygenase (LTB4 in whole blood); test: Ex-vivo mouse whole blood 5-lipoxygenase evaluation (LTB4); format: in vivo; conditions: 3 mg/k iv, 60 minutes
Method: (§1) CD-1 female mice, weighing 18-25 grams, and CD female rats, weighing 150-230 grams, were obtained from Charles River Labs. Test compounds were dissolved in 0.5% DMSO in 0.9% NaCl, for administration in mice (0.5 mg/ml) and in an alcohol vehicle (2% benzyl alcohol, 1% ethanol, 40% PEG 300, 10% propylene glycol, 47% of 5% dextrose and 3.5% pluronic F-68 in DiH2O) for use in rats (5 mg/ml). […] Heparinized whole blood (0.3 ml) was added into 1.5 ml Eppendorf centrifuge tube containing […] of 2 mM calcium ionophore A23187 (the final concentration of A23187 was […]). The sample was incubated for 30 minutes in a water bath at 37° C., and then centrifuged for 2 minutes. The plasma was diluted (×120) and assayed for LTB4 using EIA.

[2] = target: T1, Cytosol 5-Lipoxygenase of Rat Basophile Leukemia Cells (Rattus norvegicus, UniProt P12527); test: Cytosol 5-lipoxygenase of rat basophilic leukemia cells (RBL-2H3 preparation); format: biochemical; conditions: RBL-2H3 cytosol preparation, [14C]arachidonic acid
T1 construct: endogenous in cells; host or cells: RBL-2H3 cells (sonicate, 20,000 x g supernatant)
T1 sequence (P12527 1-673): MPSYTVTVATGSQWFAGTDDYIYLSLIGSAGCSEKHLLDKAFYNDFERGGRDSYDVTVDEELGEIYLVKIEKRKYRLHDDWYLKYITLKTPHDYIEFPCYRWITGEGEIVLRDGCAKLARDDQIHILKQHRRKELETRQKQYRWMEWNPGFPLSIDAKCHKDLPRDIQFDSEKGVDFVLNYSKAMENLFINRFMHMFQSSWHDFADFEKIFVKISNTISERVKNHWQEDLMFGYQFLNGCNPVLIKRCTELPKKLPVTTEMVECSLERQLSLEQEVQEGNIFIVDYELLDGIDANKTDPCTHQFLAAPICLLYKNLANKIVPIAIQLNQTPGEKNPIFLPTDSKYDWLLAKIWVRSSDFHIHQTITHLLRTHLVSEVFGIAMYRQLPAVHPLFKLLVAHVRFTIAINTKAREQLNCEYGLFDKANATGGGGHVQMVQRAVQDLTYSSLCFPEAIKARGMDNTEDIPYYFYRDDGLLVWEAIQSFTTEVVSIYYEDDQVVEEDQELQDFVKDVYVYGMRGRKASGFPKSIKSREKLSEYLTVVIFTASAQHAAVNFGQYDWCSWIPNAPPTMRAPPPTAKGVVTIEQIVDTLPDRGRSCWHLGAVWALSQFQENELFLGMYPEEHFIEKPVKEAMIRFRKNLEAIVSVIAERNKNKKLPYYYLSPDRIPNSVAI
Method: A wide variety of biological assays have also been used to evaluate the ability of a compound to inhibit the enzyme 5-lipoxygenase. For example, a cytosol 5-lipoxygenase of rat basophilic leukemia cells (RBL) has been widely utilized in studies on leukotriene biosynthesis. Compounds that inhibit 5-lipoxygenase decrease the levels of leukotrienes.
RBL-2H3 cells were grown to confluence in tissue culture flasks according to Carter et al. (J Pharm Exp Ther 256(3); 929-937, 1991). The cells were harvested and washed five times in calcium-and magnesium-free D-PBS. The cells were suspended at 2×10^7/M in 10 mM BES, 10 mM PIPES, pH 6.8, 1 mM EDTA and then sonicated. The sonicate was centrifuged at 20,000×g for 20 minutes at 4° C. The supernatant was then removed and stored in aliquots at −70° C.
The 5-LO activity in the RBL-2H3 preparation was determined as follows: 0.1 ml reactions consisting of 0.7 mM CaCl2, 100 mM NaCl, 1 mM EDTA, 10 mM BES, 10 MM PIPES, pH 7.4, varying concentrations of test compound dissolved in DMSO (7.5% DMSO final in assay), and an amount of the RBL-2H3 preparation that will convert 15% of the arachidonic acid substrate mixture to oxygenated products (determined experimentally for each RBL-2H3preparation), were incubated for 20 minutes at room temperature. The reaction was initiated by the addition of 5 μl of the arachidonic acid substrate mixture (0.944 nmol [^14C] arachidonic acid and 6.06 nmol arachidonic acid per assay in 0.028% NH4OH), and allowed to proceed for 5 minutes at 37° C. The reaction was terminated by the addition of 0.12 ml of a mixture of (i) 1.66 mg/ml triphenylphosphine in ethyl ether; (ii) methanol; and (iii) 0.2M citric acid (30:4:1); followed by centrifugation at 1000×g for 1 minute. […] The film was developed, scanned using a densitometer, and the peak areas of arachidonic acid and its product(s) are calculated. The percent inhibition was determined from the amount of [14C]-arachidonic acid converted into oxygenated products in samples containing test compound relative to that of control samples (no test compound).

[3] = tested on: Leukotriene B4 production in ionophore-stimulated human whole blood; test: Inhibition of leukotriene B4 production in ionophore-stimulated human whole blood; format: cell-based; conditions: A23187 stimulated, LTB4 by EIA, read-out: HWB IC50
Method: Another biological assay used to evaluate the ability of a compound to inhibit the enzyme 5-lipoxygenase is based on the classic pharmacological model of inflammation induced by inhibition of LTB, from ionophore stimulated human whole blood.
Human blood was drawn into heparinized blood collection tubes, and aliquoted in 1 ml portions into 1.5 ml microfuge tubes. Test compound ([…]) of varying concentrations, dissolved in DMSO, was added to the blood sample and incubated for 15 minutes at 37° C. Calcium ionophore ([…], A23187) in DMSO was added to a final concentration of […], and the samples were incubated for 30 minutes at 37° C. Samples are then centrifuged at 1100×g (2500 rpm, H1000B rotor, in a Sorvall centrifuge) for 10 minutes at 4° C. Supernatant ([…]) was transferred into a 1.5 ml microfuge tube, […] of cold methanol added, and proteins precipitated on ice for 30 minutes. The samples were centrifuged at 110×g for 10 minutes at 4° C., and the supernatant assayed for LTB4 using a commercially available EIA kit (Cayman Chemical) according to manufacturer's specifications.

[4] = target: PAF (Homo sapiens, UniProt P25105); conditions: background statement; cited from earlier work
PAF, sequence (P25105 whole entry): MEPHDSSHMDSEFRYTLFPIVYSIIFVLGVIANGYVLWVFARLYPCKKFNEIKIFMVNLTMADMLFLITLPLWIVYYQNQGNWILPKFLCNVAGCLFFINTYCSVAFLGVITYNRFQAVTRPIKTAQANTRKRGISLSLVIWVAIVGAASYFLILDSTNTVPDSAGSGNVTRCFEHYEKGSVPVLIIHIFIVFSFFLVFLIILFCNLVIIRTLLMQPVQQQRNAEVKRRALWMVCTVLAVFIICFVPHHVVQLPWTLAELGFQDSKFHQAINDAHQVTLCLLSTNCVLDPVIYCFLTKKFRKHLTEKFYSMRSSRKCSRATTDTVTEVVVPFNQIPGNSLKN

[5] = target: T2, 5-lipoxygenase (Homo sapiens, UniProt P09917); conditions: background statement; cited from earlier work
T2 sequence (P09917 1-674): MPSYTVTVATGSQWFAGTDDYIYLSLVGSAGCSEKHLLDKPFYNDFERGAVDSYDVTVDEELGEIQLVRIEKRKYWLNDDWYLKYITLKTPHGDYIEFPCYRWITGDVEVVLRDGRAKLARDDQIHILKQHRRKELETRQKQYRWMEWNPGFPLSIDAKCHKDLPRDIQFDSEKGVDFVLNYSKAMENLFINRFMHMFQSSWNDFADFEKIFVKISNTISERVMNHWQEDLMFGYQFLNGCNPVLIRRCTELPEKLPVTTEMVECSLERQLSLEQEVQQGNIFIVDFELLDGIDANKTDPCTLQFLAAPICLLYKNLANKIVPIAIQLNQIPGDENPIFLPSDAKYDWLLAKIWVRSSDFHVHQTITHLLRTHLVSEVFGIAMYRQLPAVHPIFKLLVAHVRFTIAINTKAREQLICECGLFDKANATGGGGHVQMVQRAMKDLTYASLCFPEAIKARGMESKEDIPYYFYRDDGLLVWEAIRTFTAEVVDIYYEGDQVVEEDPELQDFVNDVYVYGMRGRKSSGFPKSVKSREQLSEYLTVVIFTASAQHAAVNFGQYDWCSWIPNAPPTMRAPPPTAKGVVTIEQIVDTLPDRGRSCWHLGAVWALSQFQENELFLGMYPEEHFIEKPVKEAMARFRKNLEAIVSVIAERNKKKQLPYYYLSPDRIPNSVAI

[6] = tested on: 5-Lipoxygenase (LTB4 in whole blood); test: Ex-vivo rat whole blood 5-lipoxygenase evaluation (LTB4); format: in vivo; conditions: 2 mg/k po
Method: as §1

Row | IC50 [2] | IC50 [3] [nM] | SMILES | also measured
1 | 1380 nM and 1490 nM and 560 nM and 1600 nM and 720 nM | – | NC(=O)N(O)CCC#C[C@@H]1CC[C@@H](COc2ccc(F)cc2)O1 | ex vivo LTB4 % inh. [1]: 22%
2 | – | 150 | NC(=O)N(O)CCC#C[C@H]1CC[C@H](COc2ccc(F)cc2)O1 | –
3 | 950 nM | – | NC(=O)N(O)CCCC[C@@H]1CCC(COc2ccc(F)cc2)O1 (single isomer, unassigned) | –
4 | 1230 nM and 1400 nM | – | NC(=O)N(O)CCCC[C@@H]1CC[C@@H](COc2ccc(F)cc2)O1 | –
5 | – | – | COc1cc([C@H]2CC[C@H](c3cc(OC)c(OC)c(OC)c3)S2)cc(OC)c1OC (relative stereo) [L-653,150, trans-2,5-bis-(3,4,5-trimethoxyphenyl)tetrahydrothiophene] | PAF antagonist activity [4]: potent PAF antagonist; inhibition of 5-lipoxygenase [5]: moderate inhibitor of 5-lipoxygenase
6 | – | 430 | NC(=O)N(O)CCC#C[C@H]1CC[C@@H](COc2ccc(F)cc2)O1 | ex vivo LTB4 % inh. ([6]; 60 minutes): 86%; ex vivo LTB4 % inh. ([6]; 360 minutes): 63%
